Laboratory results published in ChEMBL document CHEMBL1201862, “PubChem BioAssay data set” (2004).
The source made the active and inactive calls.

Assays:
[1] = target: Dual specificity tyrosine-phosphorylation-regulated kinase 1A (Rattus norvegicus, UniProt Q63470); type: biochemical, Homo sapiens
[2] = A cytotoxicity screen of small molecule inhibitors of the PhoP region in Salmonella typhi identified in the primary screen. [Related pubchem assays: 1850, 1864, 1985 ]; type: functional
[3] = target: Cytochrome P450 3A4 (Homo sapiens, UniProt P08684); details: Potency;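 note: confirmatory qHTS run detecting inhibitors and substrates of CYP3A4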
[4] = target: DNA dC->dU-editing enzyme APOBEC-3G (Homo sapiens, UniProt Q9HC16); assay: Dose Response confirmation of small molecule APOBEC3G DNA Deaminase Inhibitors via a fluorescence-based single-stranded DNA deaminase assay. [Related pubchem assays (depositor defined):AID493012, AID493028]; type: functional
[5] = test system: H9c2; assay: cells; type: functional, cell-based; details: Rattus norvegicus, H9c2, Myocardium;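 note: confirmatory concentration-response retest of ultra-high-throughput screening hits for modulation of myocardial damage; cell death induced by hydrogen peroxide oxidative stress; compound pretreatment for 60 min then peroxide exposure for 2 h; potency is for protecting the cells against peroxide damage rather than for killing them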
[6] = target: T1, E3 ubiquitin-protein ligase XIAP (Homo sapiens, UniProt P98170); assay: Counter Screen using XIAP-Bir3 for Chemical Antagonists of Bir1/2 domains of IAP-family anti-apoptotic proteins. [Related pubchem assays (depositor defined):AID1018, AID1449, AID1514, AID1638, AID1749, AID1750, AID488957, AID488963]
[7] = target: T1, E3 ubiquitin-protein ligase XIAP; assay: small molecules displacing peptide from XIAP – biochemical, IAP family, fluorescence polarization (AID 1018); type: functional
[8] = target: FAD-linked sulfhydryl oxidase ALR (Homo sapiens, UniProt P55789); assay: ALR-catalysed DTT oxidation blockers – biochemical, H2O2 detection, luminescence, cherry-pick, dose response (AID 493248)
[9] = target: Glucose-6-phosphate 1-dehydrogenase (Homo sapiens, UniProt P11413); assay: inhibition of Homo sapiens G6PD, dose series – biochemical, fluorescence, selectivity assay for P. falciparum G6PD inhibitor project, dose response (AID 504792); type: functional
[10] = target: Prothrombin (Homo sapiens, UniProt P00734); assay: Thrombin 1536 HTS Dose Response Confirmation. [Related pubchem assays: 1046 (Thrombin 1536 HTS; hits were confirmed in this assay)]; type: functional
[11] = target: T2, Replicative DNA helicase DnaB (Mycobacterium tuberculosis, UniProt P9WMR3); assay: DnaB intein splicing inhibitors, dose response, biochemical, cell-free fluorescence (AID 449749); type: functional
T2 sequence (P9WMR3 whole entry): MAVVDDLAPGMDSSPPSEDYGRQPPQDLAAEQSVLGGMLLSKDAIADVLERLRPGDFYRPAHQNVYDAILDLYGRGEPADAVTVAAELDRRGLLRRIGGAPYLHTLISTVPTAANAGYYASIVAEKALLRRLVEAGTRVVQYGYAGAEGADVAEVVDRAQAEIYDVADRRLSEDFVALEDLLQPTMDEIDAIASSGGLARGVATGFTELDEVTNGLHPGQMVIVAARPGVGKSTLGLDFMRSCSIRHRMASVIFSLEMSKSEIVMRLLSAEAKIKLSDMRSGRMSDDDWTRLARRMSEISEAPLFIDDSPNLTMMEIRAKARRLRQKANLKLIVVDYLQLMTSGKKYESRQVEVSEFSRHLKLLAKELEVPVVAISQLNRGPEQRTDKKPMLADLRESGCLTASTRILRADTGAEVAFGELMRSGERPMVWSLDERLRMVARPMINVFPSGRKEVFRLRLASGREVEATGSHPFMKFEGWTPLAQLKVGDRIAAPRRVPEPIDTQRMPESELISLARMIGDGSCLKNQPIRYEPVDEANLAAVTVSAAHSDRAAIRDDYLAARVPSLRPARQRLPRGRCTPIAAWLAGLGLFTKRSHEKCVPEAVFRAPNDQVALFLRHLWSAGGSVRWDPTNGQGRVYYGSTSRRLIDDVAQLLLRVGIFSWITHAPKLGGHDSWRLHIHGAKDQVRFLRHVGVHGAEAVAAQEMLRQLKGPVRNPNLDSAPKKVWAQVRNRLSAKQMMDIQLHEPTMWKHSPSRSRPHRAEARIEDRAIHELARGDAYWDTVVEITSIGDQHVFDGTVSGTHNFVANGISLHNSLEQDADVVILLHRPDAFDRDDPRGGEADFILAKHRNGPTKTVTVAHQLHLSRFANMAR

[12] = target: T3, Protein RecA (Mycobacterium tuberculosis, UniProt P9WHJ3); assay: Fluorescence Cell-Free Homogeneous Dose Retest to Identify Inhibitors of RecA-Intein Splicing Activity. [Related pubchem assays (depositor defined):AID2097, AID2223, AID489010, AID492950]; type: functional
T3 sequence (P9WHJ3 whole entry): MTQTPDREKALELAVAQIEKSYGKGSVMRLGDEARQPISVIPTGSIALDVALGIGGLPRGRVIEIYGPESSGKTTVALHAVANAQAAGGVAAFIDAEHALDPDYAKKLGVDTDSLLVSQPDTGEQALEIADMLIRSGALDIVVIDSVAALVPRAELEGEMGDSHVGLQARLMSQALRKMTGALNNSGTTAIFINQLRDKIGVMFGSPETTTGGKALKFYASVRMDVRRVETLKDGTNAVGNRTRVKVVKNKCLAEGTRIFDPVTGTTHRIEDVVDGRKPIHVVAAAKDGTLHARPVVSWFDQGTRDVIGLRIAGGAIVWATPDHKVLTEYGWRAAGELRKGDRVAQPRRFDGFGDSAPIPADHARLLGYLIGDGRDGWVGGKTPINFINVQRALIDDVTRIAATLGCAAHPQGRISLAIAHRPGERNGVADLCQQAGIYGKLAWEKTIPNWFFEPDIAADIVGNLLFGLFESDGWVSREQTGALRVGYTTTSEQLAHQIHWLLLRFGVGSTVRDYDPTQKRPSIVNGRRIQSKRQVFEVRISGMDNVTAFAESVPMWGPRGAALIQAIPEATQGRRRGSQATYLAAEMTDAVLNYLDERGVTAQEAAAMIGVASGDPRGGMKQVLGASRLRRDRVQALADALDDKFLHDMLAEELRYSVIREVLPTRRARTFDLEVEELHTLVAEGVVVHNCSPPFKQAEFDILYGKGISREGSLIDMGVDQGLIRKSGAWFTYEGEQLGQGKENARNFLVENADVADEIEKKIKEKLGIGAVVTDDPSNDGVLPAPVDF

[13] = Trypanosoma cruzi growth suppression in host cells – NIH3T3 host cells, beta-gal luminescence, confirmation (AID 2044); type: functional, cell-based;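 note: intracellular parasites grown in NIH/3T3 mouse fibroblasts as host cells; luminescent beta-galactosidase reporter signal from transgenic T. cruzi replicating inside host cells; inhibitors lower the luminescence signal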
[14] = NIH3T3 cell viability loss – ATP luminescence, mouse fibroblasts, counter-screen, dose response (AID 2010); type: functional, cell-based;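 note: cells exposed to compound for about 90 hours before reading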
[15] = HEK-293T viability loss after treatment – luminescence, T-cell screen hits, cytotoxicity control for TCR NF-kB inhibitor project, dose response (AID 489026); type: functional, cell-based;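 note: cells exposed to compound about 14 hours before the viability readout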
[16] = reduction of Shn3 3'UTR-driven luciferase in osteoblasts – cell-based, Clone20 osteoblasts, firefly luciferase, cherry-picked, dose response (AID 624132); type: functional;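 note: firefly luciferase luminescence from reporter carrying the Shn3 3'UTR in osteoblasts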
[17] = non-specific 3'UTR reporter inhibition in Clone20-Shn3RL – cell-based, Renilla luciferase, cherry-picked, counter-screen for Shn3 inhibitor project, dose response (AID 624133); type: functional
[18] = target: Glyceraldehyde-3-phosphate dehydrogenase (Homo sapiens, UniProt P04406)
Sequence of Glyceraldehyde-3-phosphate dehydrogenase (P04406 whole entry): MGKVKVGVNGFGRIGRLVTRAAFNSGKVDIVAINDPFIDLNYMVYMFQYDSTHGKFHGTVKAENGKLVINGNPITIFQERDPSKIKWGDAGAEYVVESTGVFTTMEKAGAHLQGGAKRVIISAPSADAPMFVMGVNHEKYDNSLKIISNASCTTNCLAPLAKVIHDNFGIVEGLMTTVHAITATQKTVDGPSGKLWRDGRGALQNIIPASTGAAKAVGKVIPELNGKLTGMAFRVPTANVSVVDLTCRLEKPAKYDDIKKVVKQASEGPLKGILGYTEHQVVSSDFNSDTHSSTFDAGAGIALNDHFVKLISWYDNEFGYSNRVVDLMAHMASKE

Sequence of Cytochrome P450 3A4 (P08684 whole entry): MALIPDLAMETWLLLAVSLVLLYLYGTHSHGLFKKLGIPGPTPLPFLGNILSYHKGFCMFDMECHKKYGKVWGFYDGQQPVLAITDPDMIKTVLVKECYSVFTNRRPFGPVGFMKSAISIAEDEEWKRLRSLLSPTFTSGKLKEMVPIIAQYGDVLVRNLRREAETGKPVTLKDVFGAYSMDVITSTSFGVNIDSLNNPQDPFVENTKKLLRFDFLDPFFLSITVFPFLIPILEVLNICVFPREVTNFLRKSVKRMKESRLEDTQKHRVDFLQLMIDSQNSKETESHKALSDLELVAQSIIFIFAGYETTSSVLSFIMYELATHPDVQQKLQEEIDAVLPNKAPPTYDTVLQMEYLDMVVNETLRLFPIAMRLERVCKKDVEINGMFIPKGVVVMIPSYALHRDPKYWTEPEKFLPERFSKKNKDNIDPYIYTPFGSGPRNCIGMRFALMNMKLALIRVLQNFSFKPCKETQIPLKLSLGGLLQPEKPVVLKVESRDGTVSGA
T1 sequence (P98170 whole entry): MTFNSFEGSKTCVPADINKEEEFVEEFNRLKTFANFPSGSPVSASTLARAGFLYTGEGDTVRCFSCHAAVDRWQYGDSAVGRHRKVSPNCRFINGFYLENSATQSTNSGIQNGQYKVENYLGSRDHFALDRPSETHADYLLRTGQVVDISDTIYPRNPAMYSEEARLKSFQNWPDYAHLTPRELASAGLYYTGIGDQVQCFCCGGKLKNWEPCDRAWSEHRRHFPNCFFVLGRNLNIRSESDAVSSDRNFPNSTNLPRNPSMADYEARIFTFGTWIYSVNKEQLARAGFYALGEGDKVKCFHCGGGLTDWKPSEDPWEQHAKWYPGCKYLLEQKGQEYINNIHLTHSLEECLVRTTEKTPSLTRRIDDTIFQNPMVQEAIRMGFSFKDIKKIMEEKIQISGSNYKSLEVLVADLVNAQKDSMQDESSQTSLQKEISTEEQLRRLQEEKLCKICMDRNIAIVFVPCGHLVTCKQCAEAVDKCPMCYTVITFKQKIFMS
Sequence of DNA dC->dU-editing enzyme APOBEC-3G (Q9HC16 whole entry): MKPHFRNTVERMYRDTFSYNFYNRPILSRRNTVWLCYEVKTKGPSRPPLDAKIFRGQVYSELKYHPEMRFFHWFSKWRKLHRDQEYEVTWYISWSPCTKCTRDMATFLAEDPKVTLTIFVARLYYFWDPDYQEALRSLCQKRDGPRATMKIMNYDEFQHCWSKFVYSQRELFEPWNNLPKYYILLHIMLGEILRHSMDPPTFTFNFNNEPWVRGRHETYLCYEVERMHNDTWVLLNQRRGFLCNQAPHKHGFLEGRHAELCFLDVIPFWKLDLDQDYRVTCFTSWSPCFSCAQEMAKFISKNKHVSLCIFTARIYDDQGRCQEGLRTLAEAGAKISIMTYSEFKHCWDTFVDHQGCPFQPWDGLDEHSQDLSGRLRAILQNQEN
Sequence of Glucose-6-phosphate 1-dehydrogenase (P11413 whole entry): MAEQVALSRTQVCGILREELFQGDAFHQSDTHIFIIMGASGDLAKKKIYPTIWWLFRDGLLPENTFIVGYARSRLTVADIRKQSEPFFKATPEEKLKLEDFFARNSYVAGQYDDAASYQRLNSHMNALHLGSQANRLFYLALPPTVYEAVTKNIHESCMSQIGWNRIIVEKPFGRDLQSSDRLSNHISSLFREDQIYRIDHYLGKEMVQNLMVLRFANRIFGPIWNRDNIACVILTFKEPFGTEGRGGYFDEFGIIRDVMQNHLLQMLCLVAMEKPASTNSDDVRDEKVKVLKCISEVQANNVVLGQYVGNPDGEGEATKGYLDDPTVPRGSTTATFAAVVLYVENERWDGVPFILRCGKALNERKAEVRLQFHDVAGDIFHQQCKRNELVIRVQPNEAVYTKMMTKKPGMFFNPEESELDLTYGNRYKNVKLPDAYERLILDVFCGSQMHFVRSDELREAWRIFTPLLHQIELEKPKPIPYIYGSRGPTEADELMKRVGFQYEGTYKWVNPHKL
Sequence of FAD-linked sulfhydryl oxidase ALR (P55789 whole entry): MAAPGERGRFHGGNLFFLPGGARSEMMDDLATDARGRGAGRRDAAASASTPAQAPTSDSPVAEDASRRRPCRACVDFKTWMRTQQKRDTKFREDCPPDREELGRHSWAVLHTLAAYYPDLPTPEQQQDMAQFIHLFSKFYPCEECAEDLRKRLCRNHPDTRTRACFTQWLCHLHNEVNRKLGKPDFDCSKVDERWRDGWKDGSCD

For `O=[N+]([O-])c1ccc(O)c(/C=N/n2c(S)nnc2-c2ccccc2)c1`, the AC50 [1] was 7.9 µM (active).
With `O=C(/C=C/c1ccccc1Cl)Nc1cccc(O)c1` the EC50 [2] was > 50 µM (active).
For `S=C([S-])NCCNC(=S)[S-].[Zn+2]`, the AC50 [3] was 25.1 µM (inconclusive).
In the case of `O=C(Nc1cc(S(=O)(=O)N2CCOCC2)ccc1N1CCCCC1)c1cc(-c2ccccn2)nc2ccccc12`, the IC50 [4] is reported as 92.6 µM (active) and the IC50 [5] is reported as > 79 µM (inactive).
For `CCOC(=O)CCc1c(C)c2ccc(O)cc2oc1=O`, the IC50 [6] was > 100 µM (inactive) and the IC50 [7] was > 100 µM (not active).
For `Cc1ccc(S(=O)(=O)NNc2ccccc2)c(C)c1`, the EC50 [2] was > 50 µM (active) and the AC50 [8] was 0.319 µM (active).
For `Cc1cc(C)nc(/N=C(\N)NCCc2ccccc2)n1`, the IC50 [9] was > 80 µM (inactive).
In the case of `Cc1c(O)c(O)cc2c1oc1c3ccccc3oc(=O)c21`, the AC50 [3] is reported as 20 µM (inconclusive).
In the case of `CCCn1c(C)nc2c(N3CCOCC3)nc(C)nc21`, the AC50 [3] is reported as 7.94 µM (inconclusive).
With `CSc1nc(-c2ccccc2)nn1C(=O)c1ccc(Cl)cc1` the IC50 [10] was 0.725 µM (active), the AC50 [11] was 4.38 µM (active) and the EC50 [12] was 44.3 µM (active).
In the case of `CSc1cccc(NC(=O)c2c(Cl)cnn2C)c1`, the AC50 [1] is reported as 7.08 µM (active).
With `CCCCCCCOc1ccc(OC(=O)c2cccnc2)cc1` the EC50 [13] was 1.89 µM (active), the EC50 [14] was 4.45 µM (active) and the IC50 [15] was > 80 µM (inactive).
In the case of `O=C(Nc1cc2c3c(c1)C1CCCC1CN3CC1CCCC21)c1ccc([N+](=O)[O-])cc1` (stereo unspecified), the EC50 [13] is reported as 1.07 µM (active), the IC50 [10] is reported as > 50 µM (not active) and the EC50 [14] is reported as > 60 µM (inconclusive). The AC50 [16] was 2.2 µM (active) and the AC50 [17] was 4.88 µM (active).
For `O=S1(=O)CC2N=C(N(Cc3c(F)cccc3Cl)c3ccccc3F)SC2C1` (stereo unspecified), the IC50 [6] was > 100 µM (inactive) and the IC50 [7] was > 100 µM (not active).
For `CCN(CC)C(=O)c1c(C)[nH]c(=S)c(C#N)c1-c1ccco1`, the IC50 [9] was > 80 µM (inactive).
With `C=C(CC(=O)OC)C[C@]1(CC(=O)OC)CC2(CC=C(C)C)C(=O)C(C(=O)c3ccccc3)=C(OC(=O)c3ccc(Br)cc3)C(CC=C(C)C)(C1)C2=O` (stereo partly specified) the AC50 [3] was 3.16 µM (inconclusive).
In the case of `CCOc1ccc(NC(=O)c2ccc(N)cc2)cc1`, the EC50 [2] is reported as > 50 µM (active).
With `Cc1ccc(S(=O)(=O)N(C)C)cc1NC(=S)NC12CC3CC(CC(C3)C1)C2` the IC50 [6] was > 100 µM (inactive) and the IC50 [7] was > 100 µM (not active).
With `COc1ccc(-c2coc3ccc(OC4OC(COC(C)=O)C(OC(C)=O)C(OC(C)=O)C4OC(C)=O)c(OC(C)=O)c3c2=O)cc1` (stereo unspecified) the AC50 [3] was 15.8 µM (inconclusive).
For `COc1ccc(C(=O)Nc2nc(-c3cccs3)c(NC(C)=O)s2)cc1`, the IC50 [6] was > 100 µM (inactive) and the IC50 [7] was > 100 µM (not active).
With `O=C(O)CSc1nc2ccc(Br)cc2o1` the IC50 [18] was > 100 µM (not active).
In the case of `Cc1cccn2c(=O)c3cc(C(=O)NCC4CCCO4)c(=N)n(C4CCCC4)c3nc12` (stereo unspecified), the EC50 [2] is reported as > 50 µM (active).
With `CCOC(=O)c1[nH]c2c(c1C)C(=O)CC(c1ccc(F)cc1)C2` (stereo unspecified) the IC50 [15] was > 80 µM (inactive).
In the case of `Cc1cc(C)n(/N=C/c2cc([N+](=O)[O-])ccc2O)c(=O)c1`, the EC50 [2] is reported as > 50 µM (active).
With `Cc1nc([N+](=O)[O-])c(SCc2ccc(O)c([N+](=O)[O-])c2)[nH]1` the IC50 [4] was 77.9 µM (active).
In the case of `CCn1/c(=N/c2ccc(N3CCOCC3)cc2)ccc2ccccc21`, the IC50 [6] is reported as > 100 µM (inactive) and the IC50 [7] is reported as > 100 µM (not active).
